Results: patent US4883807A, “1,2,5,6-tetrahydropyridyl triazoles and tetrazoles useful as fungicides” (Imperial Chemical Industries PLC, priority 1986, dated 1989)

Assays:
[1] = tested on: Puccinia recondita; test: foliar fungal disease control on plants, Puccinia recondita on wheat; type: in vivo; conditions: 100 ppm foliar spray plus root drench ca. 40 ppm a.i./dry soil, one or two days before inoculation
Method: (§1) The technique employed was as follows.
(§2) The plants were grown in John Innes Potting Compost (No. 1 or 2) in 4 cm diameter minipots. The test compounds were formulated either by bead milling with aqueous Dispersol T or as a solution in acetone or acetone/ethanol which was diluted to the required concentration immediately before use. For the foliage diseases, the formulations (100 ppm active ingredient) were sprayed on to the foliage and applied to the roots of the plants in the soil. The sprays were applied to maximum retention and the root drenches to a final concentration equivalent to approximately 40 ppm a.i./dry soil. Tween 20, to give a final concentration of 0.05%, was added when the sprays were applied to cereals.
(§3) For most of the tests the compound was applied to the soil (roots) and to the foliage (by spraying) one or two days before the plant was inoculated with the disease. An exception was the test on Erysiphe graminis in which the plants were inoculated 24 hours before treatment. Foliar pathogens were applied by spray as spore suspensions onto the leaves of test plants. After inoculation, the plants were put into an appropriate environment to allow infection to proceed and then incubated until the disease was ready for assessment. The period between inoculation and assessment varied from four to fourteen days according to the disease and environment.
(§4) The disease control was recorded by the following grading: […]

[2] = tested on: Phytophthora infestans; type: in vivo; conditions: 100 ppm foliar spray plus root drench ca. 40 ppm a.i./dry soil, one or two days before inoculation
[3] = tested on: Plasmopara viticola; test: foliar fungal disease control on plants, Plasmopara viticola on vine; type: in vivo; conditions: 100 ppm foliar spray plus root drench ca. 40 ppm a.i./dry soil, one or two days before inoculation
Method: as §1, §2, §3, §4

[4] = tested on: Pyricularia oryzae; type: in vivo; conditions: 100 ppm foliar spray plus root drench ca. 40 ppm a.i./dry soil, one or two days before inoculation
[5] = tested on: Venturia inaequalis; test: foliar fungal disease control on plants, Venturia inaequalis on apple; type: in vivo; conditions: 100 ppm foliar spray plus root drench ca. 40 ppm a.i./dry soil, one or two days before inoculation
Method: as §1, §2, §3, §4

[6] = tested on: Erysiphe graminis; test: foliar fungal disease control on plants, Erysiphe graminis on barley; type: in vivo; conditions: 100 ppm foliar spray plus root drench ca. 40 ppm a.i./dry soil; inoculated 24 hours before treatment
Method: as §1, §2, §3, §4

[7] = tested on: Cercospora arachidicola; test: foliar fungal disease control on plants, Cercospora arachidicola on peanut; type: in vivo; conditions: 100 ppm foliar spray plus root drench ca. 40 ppm a.i./dry soil, one or two days before inoculation
Method: as §1, §2, §3, §4

[8] = tested on: Tetranyhus urticae (spider mites - ova); test: whole plant or invertebrate; conditions: 144 h, read-out: grading of mortality, TUe
[9] = tested on: Myzus persicae; test: whole plant or invertebrate; conditions: in Brassica rapa, 72 h, read-out: grading of mortality, MP
[10] = tested on: Musca domestica; test: whole plant or invertebrate; conditions: 24 h, read-out: grading of mortality, MD
[11] = tested on: Tetranychus urticae (spider mites - adult); test: whole plant or invertebrate; conditions: in Phaseolus vulgaris, 72 h, read-out: grading of mortality, TUa
[12] = tested on: Diabrotica balteata; test: whole plant or invertebrate; conditions: in Zea mays, 72 h, read-out: grading of mortality, DB
[13] = tested on: Blattella germanica; test: whole plant or invertebrate; conditions: 72 h, read-out: grading of mortality, BG
[14] = tested on: Meloidogyne incognita; test: nematode test, tomato root knot eelworm - larvae, semi in-vitro; type: in vivo; conditions: 250 ppm, residual, 7 days
Method: (§5) The activity of the compounds was determined using a variety of insect, mite and nematode pests. The compounds were used in the form of liquid preparations containing 500 parts per million (ppm) by weight of the compound except for the test on Meloidogyne incognita when liquid preparations of 250 ppm by weight were used. The preparations were made by dissolving the compounds in acetone and diluting the solutions with water containing 0.1% by weight of a wetting agent sold under the trade name "SYNPERONIC" NX until the liquid preparations contained the required concentration of the product. "SYNPERONIC" is a Registered Trade Mark.
(§6) The test procedure adopted with regard to each pest was basically the same and comprised supporting a number of the pests on a medium which was usually a host plant or a foodstuff on which the pests feed, and treating either or both the pests and the medium with the preparations. The mortality of the pests was then assessed at periods usually varying from one to seven days after the treatment.
(§7) The results of the tests are given in Table IX for each of the products as a grading of mortality designated as 9, 5 or 0 where 9 indicates 80-100% mortality (70-100% root-knot reduction as compared with untreated plants for Meloidogyne incognita), 5 indicates 50-79% mortality (50-69% root knot reduction for Meloidogyne incognita) and 0 indicates less than 50% mortality (root-knot reduction for Meloidogyne incognita).
(§8) In Table IX the pest organism used in designated by a letter code and the pests species, the support medium or food, and the type and duration of test is given in Table VII.

[15] = tested on: Nilaparvata lugens; test: whole plant or invertebrate; conditions: in Oryza sativa, 72 h, read-out: grading of mortality, NL
[16] = tested on: Spodoptera exigua; test: whole plant or invertebrate; conditions: in Gossypium hirsutum, 72 h, read-out: grading of mortality, SP
[17] = tested on: Musca domestica; test: knockdown properties against houseflies; type: in vivo; conditions: 2000 ppm solution (1 ml) sprayed directly
Method: A sample of compound 3 was diluted in 2 mls acetone and made upto a 2000 ppm solution with 0.1% aqueous synperonic solution. The solution (1 ml) was then sprayed directly onto twenty mixed sex houseflies held in a drinking cup. Immediately after spraying the cups were inverted and left to dry. An assessment of knockdown was made when the cups were righted 15 minutes later. The flies were then provided with a 10% sucrose solution on a cotton wool pad, and held for 48 hours in a holding room conditioned at 25° C. and 65% relative humidity before a mortality assessment was made.

[18] = tested on: Heliothis virescens; test: insecticidal test, tobacco budworm - larvae; type: in vivo; conditions: in Gossypium hirsutum, 72 h, read-out: grading of mortality, HV
Method: as §5, §6, §7, §8

Row | Compound | disease control grading, PUCCINIA RECONDITA (Wheat) [1] | disease control grading, PH[…] (TOMATOES) [2] | disease control grading, […] (Vine) [3] | disease control grading, P[…] (Rice) [4] | disease control grading, VENTURIA INAEQUALIS (Apple) [5] | disease control grading, ERYSIPHE GRAMINIS (Barley) [6] | disease control grading, CERCOSPCRA ARACHIDICOLA (Peanut) [7] | mortality at 500 ppm [8] | mortality at 500 ppm [9] | mortality at 500 ppm [10] | mortality at 500 ppm [11] | mortality at 500 ppm [12] | mortality at 500 ppm [13] | grading of root-knot reduction, MI [14] | mortality at 500 ppm [15] | mortality at 500 ppm [16] | knockdown ([17]; 15 minutes) | kill ([17]; 48 hours, 25° C., 65% relative humidity) | mortality at 500 ppm [18]
1 | CCOC(=O)/C(C#N)=C/c1cccn1/C(=C\OC)C(=O)OC [Compound 19 of Table I] | 4 | 0 (60-100% of disease on untreated plants) | 4 | 0 (60-100% of disease on untreated plants) | 0 (60-100% of disease on untreated plants) | 0 (60-100% of disease on untreated plants) | 3 (trace - 5% of disease on untreated plants) | – | – | – | – | – | – | – | – | – | – | – | –
2 | CO/C=C(/C(=O)OC)n1cccc1/C=N/OC [Compound 1 of Table I] | 4 | 3 (trace - 5% of disease on untreated plants) | 4 | 4 | 4 | 4 | 4 | – | – | – | – | – | – | – | – | – | – | – | –
3 | CO/C=C(/C(=O)OC)n1cccc1/C=N/OCc1ccccc1 [Compound 5 of Table I] | 3 (trace - 5% of disease on untreated plants) | 0 (60-100% of disease on untreated plants) | 4 | 4 | 4 | 3 (trace - 5% of disease on untreated plants) | 3 (trace - 5% of disease on untreated plants) | – | – | – | – | – | – | – | – | – | – | – | –
4 | CO/C=C(/C(=O)OC)n1cccc1CN1CCOCC1 [Compound 5 of Table II] | 2 (6-25% of disease on untreated plants) | 0 (60-100% of disease on untreated plants) | 0 (60-100% of disease on untreated plants) | 0 (60-100% of disease on untreated plants) | 4 | 2 (6-25% of disease on untreated plants) | 4 | – | – | – | – | – | – | – | – | – | – | – | –
5 | CCOC(=O)/C=C/c1cccn1/C(=C\OC)C(=O)OC [(Z)-methyl 3-methoxy-2-[2-(E-2-carbethoxyethenyl)pyrrol-1-yl]acrylate] | 4 | 4 | 4 | 4 | 4 | 0 (60-100% of disease on untreated plants) | 4 | – | – | – | – | – | – | – | – | – | – | – | –
6 | C#CCO/N=C/c1cccn1/C(=C\OC)C(=O)OC [Compound 7 of Table I] | 4 | 3 (trace - 5% of disease on untreated plants) | 4 | 4 | 4 | 4 | 4 | < 50% | < 50% | < 50% | 80 to 100% | 80 to 100% | 50 to 79% | 0 (less than 50% mortality (root-knot reduction for Meloidogyne incognita)) | < 50% | – | – | – | –
7 | C=CCO/N=C\c1cccn1/C(=C\OC)C(=O)OC [Compound 4 of Table I] | 4 | 4 | 4 | 4 | 4 | 4 | 4 | – | – | – | – | – | – | – | – | – | – | – | –
8 | C=CCO/N=C/c1cccn1/C(=C\OC)C(=O)OC [Compound 3 of Table I] | 4 | 0 (60-100% of disease on untreated plants) | 4 | – | 4 | 4 | 4 | < 50% | < 50% | 80 to 100% | 80 to 100% | 80 to 100% | 80 to 100% | 5 (50-69% root knot reduction for Meloidogyne incognita) | 80 to 100% | < 50% | 90% | 93% | < 50%
9 | CO/C=C(/C(=O)OC)n1cccc1/C=N\OC [Compound 2 of Table I] | 4 | 0 (60-100% of disease on untreated plants) | 4 | 3 (trace - 5% of disease on untreated plants) | 4 | 4 | 4 | < 50% | 80 to 100% | < 50% | 80 to 100% | 50 to 79% | < 50% | 0 (less than 50% mortality (root-knot reduction for Meloidogyne incognita)) | < 50% | < 50% | – | – | < 50%
